Source: the supplement of paper PMC13380429

Columns and labels:
Conditions in all cases: 72 h
Caco-2 [1] = test: cell viability relative to DMSO; higher = less toxic
Calu-3 [2] = test: as above
HepG2 [3] = test: as above
Vero E6 [4] = test: as above
Caco-2 [5] = test: relative viability EC50 (midpoint between 100% and the lowest measured viability); higher = less toxic
Calu-3 [6] = test: as above
HepG2 [7] = test: as above
Vero E6 [8] = test: as above
Caco-2 [9] = test: drug sensitivity score (DSS) for viability; higher = more toxic; extreme values may be limits of the assay
Calu-3 [10] = test: as above
HepG2 [11] = test: as above
Vero E6 [12] = test: as above
U2OS [13] = test: cell viability relative to DMSO; higher = less toxic
U2OS [14] = test: relative viability EC50 (midpoint between 100% and the lowest measured viability); higher = less toxic
U2OS [15] = test: drug sensitivity score (DSS) for viability; higher = more toxic; extreme values may be limits of the assay

Compound	cell viability (Caco-2 [1]; 1 nM) [%]	cell viability (Caco-2 [1]; 10 nM) [%]	cell viability (Caco-2 [1]; 100 nM) [%]	cell viability (Caco-2 [1]; 1000 nM) [%]	cell viability (Caco-2 [1]; 10000 nM) [%]	cell viability (Calu-3 [2]; 1 nM) [%]	cell viability (Calu-3 [2]; 10 nM) [%]	cell viability (Calu-3 [2]; 100 nM) [%]	cell viability (Calu-3 [2]; 1000 nM) [%]	cell viability (Calu-3 [2]; 10000 nM) [%]	cell viability (HepG2 [3]; 1 nM) [%]	cell viability (HepG2 [3]; 10 nM) [%]	cell viability (HepG2 [3]; 100 nM) [%]	cell viability (HepG2 [3]; 1000 nM) [%]	cell viability (HepG2 [3]; 10000 nM) [%]	cell viability (Vero E6 [4]; 1 nM) [%]	cell viability (Vero E6 [4]; 10 nM) [%]	cell viability (Vero E6 [4]; 100 nM) [%]	cell viability (Vero E6 [4]; 1000 nM) [%]	cell viability (Vero E6 [4]; 10000 nM) [%]	relative viability EC50 (Caco-2 [5]) [µM]	relative viability EC50 (Calu-3 [6]) [µM]	relative viability EC50 (HepG2 [7]) [µM]	relative viability EC50 (Vero E6 [8]) [µM]	drug sensitivity score (Caco-2 [9])	drug sensitivity score (Calu-3 [10])	drug sensitivity score (HepG2 [11])	drug sensitivity score (Vero E6 [12])	cell viability (U2OS [13]; 1 nM) [%]	cell viability (U2OS [13]; 10 nM) [%]	cell viability (U2OS [13]; 100 nM) [%]	cell viability (U2OS [13]; 1000 nM) [%]	cell viability (U2OS [13]; 10000 nM) [%]	relative viability EC50 (U2OS [14]) [µM]	drug sensitivity score (U2OS [15])
CCNC(=O)[C@H]1O[C@@H](n2cnc3c(N)nc(NCCc4ccc(CCC(=O)O)cc4)nc32)[C@H](O)[C@@H]1O	99.1	101	92.1	96.4	97.3	95.7	99.2	99.5	113	98.9	96.2	102	116	97	96.7	104	109	98.8	97.9	95.8	> 10	> 10	> 10	> 10	0	0	0	0	–	–	–	–	–	–	–
COc1ccc(-c2nc(C(=O)N3CCN(C)CC3)sc2-c2ccc(OC)cc2)cc1	99.2	94.6	108	102	102	97.5	101	99.7	109	106	98.7	95.7	104	107	98.5	107	104	102	103	95.6	> 10	> 10	> 10	> 10	0	0	0	0	–	–	–	–	–	–	–
C[C@H](NC(=O)[C@@H](O)c1cc(F)cc(F)c1)C(=O)N[C@@H]1C(=O)N(C)c2ccccc2-c2ccccc21	101	89.2	101	86	91.3	98	87.7	97.9	101	100	97.1	95.6	102	101	88.2	–	–	–	–	–	> 10	> 10	> 10	–	0	0	0	–	96	93.9	94	93	94.7	> 10	0
Cc1ccc(/C=C2\CNC/C(=C\c3ccc(C)cc3)C2=O)cc1	103	98.6	94	94.1	38.8	92.7	112	105	104	79	119	99.2	110	101	12.4	101	97.9	104	103	50.2	2.36	> 10	3.24	–	4.3	0.5	4.8	2.4	105	106	101	98	13.4	3	5.1
Cc1ccc2c(c1)C1(CCN(CCc3nc(-c4ccccc4)oc3C)CC1)OC(=O)N2	97	91.7	93.3	94.4	87.7	94.9	103	98.1	98	85.3	101	96	96.7	95.3	75.4	92.9	101	96.4	94.4	74.1	> 10	> 10	> 10	–	0	0.4	1.6	1.8	98.5	96.5	96.3	94	88.8	> 10	0
Cn1c(N2CCCCS2(=O)=O)nc(C(=O)NCc2ccc(F)cc2)c(O)c1=O	85.9	88.6	88.9	92.7	81.1	98.4	89.8	95.6	102	97.4	103	96.9	105	106	46.9	103	96.6	100	102	85.4	> 10	> 10	3.68	> 10	0	0	2.4	0.1	94.3	100	94.5	93.7	54.9	–	3.4
O=C(O)c1ccc(S(=O)(=O)N(Cc2ccc(OC(F)(F)F)cc2)c2ncc(C(F)(F)F)cc2Cl)cc1	96.7	92.3	90.6	96.5	104	–	–	–	–	–	104	108	95.3	99.8	95.6	104	95.9	99.3	96.5	88.9	> 10	–	> 10	> 10	0	–	0	0.1	99.4	95.1	97.3	96.2	97.2	> 10	0
CCOc1ccccc1N/N=C1/C(=O)N(c2nc(-c3ccccc3)cs2)N=C1C [BAM7]	94.6	105	88.2	103	88.7	96.5	95.8	83.7	97.3	99.6	106	96.2	99.1	92.2	82.6	98.8	101	95.2	95.2	94.8	> 10	> 10	> 10	> 10	0	0	0.9	0	–	–	–	–	–	–	–
CO[C@H]1CC[C@H](N2C(=O)CNc3ncc(-c4ccc(C(C)(C)O)nc4)nc32)CC1 [CC-223]	102	104	99.4	81.9	42.7	94.6	87.1	106	74.4	41.6	103	95.6	98.9	94.6	42.9	110	104	99.8	92.5	52.7	1.36	1.11	2.39	–	5.8	6.6	4	3.7	99.1	95.6	102	97.7	56	–	2.6
COc1ccc(-n2c(C)c([N+](=O)[O-])c3ccc(O)cc32)cc1 [ID-8]	98.3	111	91	92.2	94.5	99.7	97.6	91.1	79.9	88.4	99.3	102	97.4	106	93.6	96.3	103	94.2	94.5	92.1	> 10	> 10	> 10	> 10	0	2.6	0	0	–	–	–	–	–	–	–
Cc1c[nH]c2ncnc(N3CCC(CN)(C(=O)Nc4cccc(OC(=O)N(C)C)c4)CC3)c12 [LX7101]	88.3	97.8	98.9	96	82.4	82.4	99.4	110	125	114	99.8	99.2	101	102	86.4	93.2	100	92.4	102	112	> 10	> 10	> 10	> 10	0.9	0	0.1	0	98	97.4	98.5	94	70.9	–	2.2
Cc1cc(C)c2nc(-c3ccccn3)cc(C(=O)Nc3ccc(S(=O)(=O)Nc4onc(C)c4C)cc3)c2c1 [ML193]	95.2	90.1	101	83.7	114	97	93.5	96	86.3	94.9	89.7	108	100	97.2	104	–	–	–	–	–	> 10	> 10	> 10	–	0	0	0	–	100	98.7	103	98	98.4	> 10	0
O=C(CN1CCN(C(=O)c2ccco2)CC1)Nc1cc(C(F)(F)F)ccc1Cl [ML348]	96.3	89	97	96.1	91.1	118	95.7	102	104	95.5	96.9	98	93.1	106	104	98.4	98.8	94	98.3	94.6	> 10	> 10	> 10	> 10	0	0	0	0	–	–	–	–	–	–	–
C[C@@H]1O[C@@H](O[C@H]2[C@H](Oc3cc(O)c4c(c3)O[C@H](c3ccc(O)cc3)CC4=O)O[C@H](CO)[C@@H](O)[C@@H]2O)[C@H](O)[C@H](O)[C@H]1O [Naringin (Naringoside)]	92.3	95.9	97.9	96.3	102	110	96.9	98.8	103	98.8	104	112	90	97.7	98.9	–	–	–	–	–	> 10	> 10	> 10	–	0	0	0	–	99.6	94.7	101	98.2	108	> 10	0
O=C(O)C1CN(Cc2ccc(-c3nc4cc(Cc5ccccc5F)ccc4s3)c(F)c2)C1 [TC-SP-14]	97	81.7	84.2	99.1	81.8	91.2	90.5	102	95.1	107	109	121	90.3	119	90	–	–	–	–	–	> 10	> 10	> 10	–	0	0	0	–	99.4	97.9	98.8	102	101	> 10	0
